Experimental findings from patent publication EP0003415A2, “Beta-Lactam compounds, processes for their preparation,compositions containing them and intermediates of use in their preparation” (GLAXO GROUP LIMITED, priority 1978, dated 1979) are described below.

≈ marks a conversion by molar mass, not a printed value.

What all share (experiment): Determination of Minimum Inhibitory Concentrations (MIC), agar dilution
Assay type in all cases: cell-based

One experiment has as its system E. cloacae 1051E. To be noted: Enterobacter cloacae, clinical isolate, Oxoid No.1 Nutrient agar, approximately 10^5 colony forming units, read after 18 hours at 37°C. From the text: (§1) Biological testing of two of the compounds of the invention has provided the results shown below; the test compounds are identified by their Example Numbers: 1. Determination of Minimum Inhibitory Concentrations (MIC) Serial two-fold dilutions of freshly prepared test solutions were made into Oxoid No.l Nutrient agar with or without added enrichment and poured into petri […] Plates were inoculated with a multipoint inoculator with inoculum containing approximately 10^5 colony forming units of the organisms shown in the following Tables, all of which organisms are clinical isolates. The MIC, quoted in the Table as μg/ml, was read after 18 hours incubation at 37°C as the lowest concentration which inhibited growth.

The next experiment deals with Staph.aureus 853E. To be noted: Staphylococcus aureus, clinical isolate, Oxoid No.1 Nutrient agar, approximately 10^5 colony forming units, read after 18 hours at 37°C.
Text: as §1

A further experiment has as its system E. cloacae 1321E. To be noted: Enterobacter cloacae, clinical isolate, Oxoid No.1 Nutrient agar, approximately 10^5 colony forming units, read after 18 hours at 37°C.
Text: as §1

The subject of another experiment is S. marcescens 1324E. To be noted: Serratia marcescens, clinical isolate, Oxoid No.1 Nutrient agar, approximately 10^5 colony forming units, read after 18 hours at 37°C.
Text: as §1

Another experiment relates to K. aerogenes 1522E. To be noted: Klebsiella aerogenes, clinical isolate, Oxoid No.1 Nutrient agar, approximately 10^5 colony forming units, read after 18 hours at 37°C.
Text: as §1

In the next experiment the test system is Micrococcus Sp 1810E. To be noted: SP1810E, clinical isolate, Oxoid No.1 Nutrient agar, approximately 10^5 colony forming units, read after 18 hours at 37°C.
Text: as §1

The next experiment has as its system E. coli 851E. To be noted: Escherichia coli, clinical isolate, Oxoid No.1 Nutrient agar, approximately 10^5 colony forming units, read after 18 hours at 37°C.
Text: as §1

For another experiment, the system named is H. influenzae 1184E. Conditions: Haemophilus influenzae, clinical isolate, Oxoid No.1 Nutrient agar, approximately 10^5 colony forming units, read after 18 hours at 37°C.
Text: as §1

As for `NCCC1=C(C(=O)O)N2C(=O)CC2S1` (racemic) [Example 4, (5RS)-2-(2-Aminoethyl)pen-2-em-3-carboxylic acid], the MIC amounted to 8 µg/mL (≈ 37.3 µM) in the experiment on E. cloacae 1051E; 1 µg/mL (≈ 4.67 µM) with Staph.aureus 853E; 8 µg/mL (≈ 37.3 µM) in the experiment with E. cloacae 1321E; 31 µg/mL (≈ 145 µM) in the experiment on S. marcescens 1324E; 16 µg/mL (≈ 74.7 µM) in the experiment with K. aerogenes 1522E; 0.2 µg/mL (≈ 0.934 µM) in the experiment on Micrococcus Sp 1810E. Besides, the MIC stood at 8 µg/mL (≈ 37.3 µM) with E. coli 851E and 62 µg/mL (≈ 289 µM) in the experiment with H. influenzae 1184E.

With `NCCCC1=C(C(=O)O)N2C(=O)CC2S1` (racemic) [Example 19, (5RS)-2-[3-Aminopropyl]-pen-2-em-3-carboxylate], the MIC with E. cloacae 1051E came out at 16 µg/mL (≈ 70.1 µM); against Staph.aureus 853E, 0.5 µg/mL (≈ 2.19 µM); against E. cloacae 1321E it was 8 µg/mL (≈ 35 µM); in the experiment on S. marcescens 1324E it was 31 µg/mL (≈ 136 µM); with K. aerogenes 1522E, 16 µg/mL (≈ 70.1 µM); in the experiment on Micrococcus Sp 1810E it was 0.1 µg/mL (≈ 0.438 µM). Also, the MIC came out at 8 µg/mL (≈ 35 µM) with E. coli 851E and 16 µg/mL (≈ 70.1 µM) in the experiment with H. influenzae 1184E.
